From ChEMBL document CHEMBL5465560, “Selectivity Literature for EUbOPEN Chemogenomic Library” (2024)
Blank lines part the entries; values can stand above or below the compound they belong to.

Legend:
[1] = target: LIM domain kinase 1 (Homo sapiens) (UniProt P53667); conditions: at 10 µM
[2] = target: Mitogen-activated protein kinase kinase kinase 9 (Homo sapiens) (UniProt P80192); conditions: at 10 µM
[3] = target: Sodium-dependent dopamine transporter (Homo sapiens, UniProt Q01959); assay: Selectivity interaction (Dopamine Transporter assay, human recombinant ) EUB0000877a SLC6A3
Chain of Sodium-dependent dopamine transporter (Q01959 whole entry): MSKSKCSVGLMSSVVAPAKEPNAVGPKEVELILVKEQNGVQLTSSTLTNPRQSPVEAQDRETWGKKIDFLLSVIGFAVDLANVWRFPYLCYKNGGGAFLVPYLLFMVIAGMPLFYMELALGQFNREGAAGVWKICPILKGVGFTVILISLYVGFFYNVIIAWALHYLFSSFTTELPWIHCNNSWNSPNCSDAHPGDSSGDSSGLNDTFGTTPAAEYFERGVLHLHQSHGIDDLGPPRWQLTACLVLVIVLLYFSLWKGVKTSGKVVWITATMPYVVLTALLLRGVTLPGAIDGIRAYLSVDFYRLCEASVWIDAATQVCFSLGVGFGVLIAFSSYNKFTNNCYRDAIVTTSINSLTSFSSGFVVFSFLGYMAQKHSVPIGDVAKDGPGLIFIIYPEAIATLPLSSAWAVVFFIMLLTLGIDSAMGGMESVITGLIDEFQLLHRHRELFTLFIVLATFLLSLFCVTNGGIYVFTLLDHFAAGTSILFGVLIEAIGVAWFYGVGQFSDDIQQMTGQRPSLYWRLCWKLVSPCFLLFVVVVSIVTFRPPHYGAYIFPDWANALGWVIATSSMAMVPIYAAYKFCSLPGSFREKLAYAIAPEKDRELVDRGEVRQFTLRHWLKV

[4] = target: T1, Ephrin type-A receptor 8 (Homo sapiens) (UniProt P29322); assay: Selectivity interaction (KinomeScan (DiscoverX)) EUB0000092b EPHA8; conditions: at 10 µM
T1 sequence (whole entry): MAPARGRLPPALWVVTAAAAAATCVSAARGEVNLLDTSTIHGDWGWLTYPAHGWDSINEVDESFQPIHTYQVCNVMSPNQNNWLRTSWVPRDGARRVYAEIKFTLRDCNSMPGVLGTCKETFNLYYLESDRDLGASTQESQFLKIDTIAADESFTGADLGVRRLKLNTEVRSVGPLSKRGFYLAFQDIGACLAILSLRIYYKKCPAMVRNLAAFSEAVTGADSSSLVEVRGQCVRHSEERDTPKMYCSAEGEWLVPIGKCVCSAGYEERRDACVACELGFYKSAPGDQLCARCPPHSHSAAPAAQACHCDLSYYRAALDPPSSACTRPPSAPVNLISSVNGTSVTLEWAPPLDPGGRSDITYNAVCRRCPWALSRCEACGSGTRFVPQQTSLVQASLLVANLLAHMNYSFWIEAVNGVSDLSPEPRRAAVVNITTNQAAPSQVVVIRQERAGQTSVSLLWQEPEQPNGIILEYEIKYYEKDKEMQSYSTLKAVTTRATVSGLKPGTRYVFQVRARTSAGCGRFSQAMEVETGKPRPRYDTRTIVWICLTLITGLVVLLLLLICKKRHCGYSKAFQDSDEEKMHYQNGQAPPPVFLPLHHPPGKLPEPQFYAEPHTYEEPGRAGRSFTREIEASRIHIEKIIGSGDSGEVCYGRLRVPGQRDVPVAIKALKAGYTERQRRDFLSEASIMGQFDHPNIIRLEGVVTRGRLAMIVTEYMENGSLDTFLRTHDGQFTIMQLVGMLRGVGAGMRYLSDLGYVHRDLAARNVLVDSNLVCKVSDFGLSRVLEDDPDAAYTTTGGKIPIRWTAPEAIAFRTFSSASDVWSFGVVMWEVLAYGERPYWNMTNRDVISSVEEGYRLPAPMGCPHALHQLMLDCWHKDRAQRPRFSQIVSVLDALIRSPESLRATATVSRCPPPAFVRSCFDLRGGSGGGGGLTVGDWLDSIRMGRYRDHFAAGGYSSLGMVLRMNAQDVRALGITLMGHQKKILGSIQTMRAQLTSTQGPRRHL

Peregrin (Homo sapiens) = target: T2, Peregrin (Homo sapiens) (UniProt P55201); assay: Selectivity interaction (Human bromodomain panel (DSF assay)) EUB0000233b BRPF1
T2 sequence (whole entry): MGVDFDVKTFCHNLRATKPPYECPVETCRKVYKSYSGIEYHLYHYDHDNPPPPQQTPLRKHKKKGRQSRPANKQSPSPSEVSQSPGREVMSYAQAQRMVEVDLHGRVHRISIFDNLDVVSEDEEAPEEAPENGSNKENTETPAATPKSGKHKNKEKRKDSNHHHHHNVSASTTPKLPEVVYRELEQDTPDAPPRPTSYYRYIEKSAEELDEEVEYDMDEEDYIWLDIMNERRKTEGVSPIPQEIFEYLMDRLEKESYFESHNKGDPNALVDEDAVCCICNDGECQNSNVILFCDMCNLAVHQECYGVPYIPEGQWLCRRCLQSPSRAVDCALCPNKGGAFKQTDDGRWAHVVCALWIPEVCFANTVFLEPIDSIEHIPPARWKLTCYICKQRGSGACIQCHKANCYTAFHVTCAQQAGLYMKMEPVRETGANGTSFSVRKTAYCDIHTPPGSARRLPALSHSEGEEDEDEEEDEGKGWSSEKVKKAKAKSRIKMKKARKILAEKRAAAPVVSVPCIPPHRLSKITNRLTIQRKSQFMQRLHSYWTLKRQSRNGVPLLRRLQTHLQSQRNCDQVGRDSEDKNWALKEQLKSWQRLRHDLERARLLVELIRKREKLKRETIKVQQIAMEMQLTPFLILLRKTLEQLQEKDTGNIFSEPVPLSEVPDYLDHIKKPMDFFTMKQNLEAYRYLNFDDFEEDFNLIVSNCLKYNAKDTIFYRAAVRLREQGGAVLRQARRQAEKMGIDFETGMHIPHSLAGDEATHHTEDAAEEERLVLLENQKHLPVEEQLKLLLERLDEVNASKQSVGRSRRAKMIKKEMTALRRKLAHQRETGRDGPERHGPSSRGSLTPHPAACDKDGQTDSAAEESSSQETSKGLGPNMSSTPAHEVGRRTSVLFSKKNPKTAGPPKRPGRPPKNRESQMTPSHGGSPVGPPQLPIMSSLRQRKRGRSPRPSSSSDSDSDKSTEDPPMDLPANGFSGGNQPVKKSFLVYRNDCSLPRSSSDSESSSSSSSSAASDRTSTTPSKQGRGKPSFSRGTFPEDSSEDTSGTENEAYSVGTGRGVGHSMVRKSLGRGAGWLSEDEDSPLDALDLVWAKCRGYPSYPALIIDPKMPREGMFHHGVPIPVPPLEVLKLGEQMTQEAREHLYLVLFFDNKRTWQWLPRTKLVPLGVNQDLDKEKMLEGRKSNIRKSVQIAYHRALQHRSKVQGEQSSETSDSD

[5] = target: T3, Rhodopsin kinase GRK7 (Homo sapiens) (UniProt Q8WTQ7); assay: Selectivity interaction (KinomeScan (DiscoverX)) EUB0000045b GRK7
T3 sequence (whole entry): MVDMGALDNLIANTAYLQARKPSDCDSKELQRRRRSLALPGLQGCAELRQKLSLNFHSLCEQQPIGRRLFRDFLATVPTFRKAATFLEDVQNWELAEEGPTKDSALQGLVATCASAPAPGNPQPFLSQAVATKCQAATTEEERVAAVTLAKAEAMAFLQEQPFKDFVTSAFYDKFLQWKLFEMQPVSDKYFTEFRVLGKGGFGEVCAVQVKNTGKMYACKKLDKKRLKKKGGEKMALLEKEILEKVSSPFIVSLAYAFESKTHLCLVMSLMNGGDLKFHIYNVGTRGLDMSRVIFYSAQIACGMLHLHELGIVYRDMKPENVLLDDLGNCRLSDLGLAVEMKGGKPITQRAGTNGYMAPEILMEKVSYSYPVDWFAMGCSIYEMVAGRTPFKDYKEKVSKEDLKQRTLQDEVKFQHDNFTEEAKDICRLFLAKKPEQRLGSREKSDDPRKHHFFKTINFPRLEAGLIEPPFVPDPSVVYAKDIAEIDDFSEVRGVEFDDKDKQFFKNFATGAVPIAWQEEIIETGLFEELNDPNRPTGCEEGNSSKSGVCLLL

[6] = target: Platelet-derived growth factor receptor alpha (Homo sapiens, UniProt P16234); assay: Selectivity interaction (KinomeScan (DiscoverX)) EUB0001619a PDGFRA; conditions: at 1 µM
Chain of Platelet-derived growth factor receptor alpha (P16234 whole entry): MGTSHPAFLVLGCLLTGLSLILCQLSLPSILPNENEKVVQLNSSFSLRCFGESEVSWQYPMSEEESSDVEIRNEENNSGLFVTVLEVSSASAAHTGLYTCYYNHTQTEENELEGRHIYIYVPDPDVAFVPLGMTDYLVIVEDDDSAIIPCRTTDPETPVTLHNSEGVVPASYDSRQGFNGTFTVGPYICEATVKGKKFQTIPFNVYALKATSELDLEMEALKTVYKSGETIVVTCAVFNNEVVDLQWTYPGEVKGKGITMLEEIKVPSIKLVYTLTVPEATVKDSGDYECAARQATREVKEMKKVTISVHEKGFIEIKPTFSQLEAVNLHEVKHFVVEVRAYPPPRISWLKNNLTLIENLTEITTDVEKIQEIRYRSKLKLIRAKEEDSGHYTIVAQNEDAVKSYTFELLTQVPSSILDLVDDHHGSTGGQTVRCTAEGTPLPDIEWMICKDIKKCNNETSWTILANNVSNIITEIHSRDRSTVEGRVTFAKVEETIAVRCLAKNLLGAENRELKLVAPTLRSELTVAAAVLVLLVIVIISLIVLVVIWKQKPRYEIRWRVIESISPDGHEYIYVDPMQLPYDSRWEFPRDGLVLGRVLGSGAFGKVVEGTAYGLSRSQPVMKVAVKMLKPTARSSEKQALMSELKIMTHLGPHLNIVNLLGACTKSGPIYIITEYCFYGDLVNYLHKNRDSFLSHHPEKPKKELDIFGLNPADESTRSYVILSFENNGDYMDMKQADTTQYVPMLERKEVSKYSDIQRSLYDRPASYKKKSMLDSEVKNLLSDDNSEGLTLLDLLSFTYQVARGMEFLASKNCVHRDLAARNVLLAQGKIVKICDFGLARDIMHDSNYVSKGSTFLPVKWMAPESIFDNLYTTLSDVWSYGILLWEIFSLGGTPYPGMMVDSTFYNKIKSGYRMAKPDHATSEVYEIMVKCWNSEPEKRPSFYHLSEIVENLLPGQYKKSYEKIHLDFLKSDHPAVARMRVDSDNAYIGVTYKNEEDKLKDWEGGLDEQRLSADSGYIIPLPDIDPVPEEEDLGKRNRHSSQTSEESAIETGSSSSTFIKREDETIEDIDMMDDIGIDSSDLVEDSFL

Chain of LIM domain kinase 1 (Homo sapiens) (P53667 whole entry, looked up, the tested form may be a part): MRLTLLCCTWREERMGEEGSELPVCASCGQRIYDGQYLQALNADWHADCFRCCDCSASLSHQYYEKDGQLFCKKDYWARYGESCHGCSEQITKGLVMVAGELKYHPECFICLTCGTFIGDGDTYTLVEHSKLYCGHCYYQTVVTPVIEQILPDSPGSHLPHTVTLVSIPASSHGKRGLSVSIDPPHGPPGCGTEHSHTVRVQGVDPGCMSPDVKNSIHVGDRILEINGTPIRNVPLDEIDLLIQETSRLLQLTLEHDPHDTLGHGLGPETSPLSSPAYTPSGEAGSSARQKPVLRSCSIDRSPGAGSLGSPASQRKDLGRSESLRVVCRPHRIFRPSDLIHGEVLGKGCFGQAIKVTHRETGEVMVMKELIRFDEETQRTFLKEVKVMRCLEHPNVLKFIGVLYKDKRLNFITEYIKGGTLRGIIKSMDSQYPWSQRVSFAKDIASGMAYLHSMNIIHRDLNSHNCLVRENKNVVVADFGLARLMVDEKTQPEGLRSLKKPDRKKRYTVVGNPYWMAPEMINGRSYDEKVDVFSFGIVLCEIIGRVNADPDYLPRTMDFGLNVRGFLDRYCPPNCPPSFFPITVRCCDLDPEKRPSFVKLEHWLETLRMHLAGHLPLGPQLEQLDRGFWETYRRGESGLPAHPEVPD
Chain of Mitogen-activated protein kinase kinase kinase 9 (Homo sapiens) (P80192 whole entry, looked up): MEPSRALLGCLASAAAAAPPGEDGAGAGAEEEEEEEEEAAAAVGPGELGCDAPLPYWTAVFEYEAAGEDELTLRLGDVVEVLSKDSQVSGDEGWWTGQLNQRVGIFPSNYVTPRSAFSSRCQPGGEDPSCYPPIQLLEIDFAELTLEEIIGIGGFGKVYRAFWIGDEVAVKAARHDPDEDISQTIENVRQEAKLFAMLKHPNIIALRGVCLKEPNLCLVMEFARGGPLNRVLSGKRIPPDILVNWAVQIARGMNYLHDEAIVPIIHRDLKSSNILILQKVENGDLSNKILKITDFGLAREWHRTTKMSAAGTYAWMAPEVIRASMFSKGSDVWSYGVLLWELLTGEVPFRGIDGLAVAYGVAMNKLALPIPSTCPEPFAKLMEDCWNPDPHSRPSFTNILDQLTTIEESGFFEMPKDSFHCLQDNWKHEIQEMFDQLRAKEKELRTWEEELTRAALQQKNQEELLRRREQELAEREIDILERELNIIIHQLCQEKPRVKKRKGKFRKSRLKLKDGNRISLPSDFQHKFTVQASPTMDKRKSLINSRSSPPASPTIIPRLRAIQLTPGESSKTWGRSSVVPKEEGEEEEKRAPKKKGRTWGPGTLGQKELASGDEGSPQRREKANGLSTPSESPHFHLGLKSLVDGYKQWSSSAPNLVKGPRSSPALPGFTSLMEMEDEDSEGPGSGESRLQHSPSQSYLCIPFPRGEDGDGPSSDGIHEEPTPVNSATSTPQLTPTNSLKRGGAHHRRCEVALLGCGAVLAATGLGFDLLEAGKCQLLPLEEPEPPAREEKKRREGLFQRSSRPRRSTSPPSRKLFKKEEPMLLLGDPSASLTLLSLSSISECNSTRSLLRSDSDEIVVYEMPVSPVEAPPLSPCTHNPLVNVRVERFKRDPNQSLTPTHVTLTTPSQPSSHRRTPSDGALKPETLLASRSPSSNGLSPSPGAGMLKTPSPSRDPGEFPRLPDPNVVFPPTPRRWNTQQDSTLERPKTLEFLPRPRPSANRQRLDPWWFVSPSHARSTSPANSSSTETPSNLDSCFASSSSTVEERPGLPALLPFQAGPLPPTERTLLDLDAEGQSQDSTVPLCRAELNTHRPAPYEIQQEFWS

SMILES: Cc1cc([C@@H](C)Nc2ccccc2C(=O)O)c2nc(N3CCOCC3)cc(=O)n2c1 [AZD-6482]
% of control [1]: 100%
% of control [2]: 91%

IC50 [3]: > 30 µM
SMILES: CCC(=O)N1CC[C@H](Nc2ncnc3c2CN(c2cnc(OC)c(C(F)(F)F)c2)CC3)C1 [LENIOLISIB]

SMILES: CCC(=O)N1CCN(c2ccc(-n3c(=O)ccc4cnc5ccc(-c6cnc7ccccc7c6)cc5c43)cc2C(F)(F)F)CC1
% of control [4]: 71%

dTM (Peregrin (Homo sapiens)): < 2 K
SMILES: CN(C)CCCOc1ccc(-c2cc(NCCCn3cccn3)nc(S(C)(=O)=O)n2)cc1

SMILES: C=CC(=O)Nc1cc(-n2c(=O)ccc3cnc4ccc(-c5ccc(NS(C)(=O)=O)cc5)cc4c32)ccc1C
% of control ([5]; at 1 µM): 75%
% of control ([5]; at 10 µM): 84%

SMILES: N#Cc1cccc(-c2c[nH]c3ncnc(N4CCOCC4)c23)c1
% of control [6]: 100%
